# Laboratory results reported in paper PMC11050532, “The Inhibition Activity of Natural Methoxyflavonoid from Inula britannica on Soluble Epoxide Hydrolase and NO Production in RAW264.7 Cells” (International Journal of Molecular Sciences, 2024).
# Assays:
# [1] = system: sEH; conditions: cited from earlier work; for inhibition mode: sEH
# [2] = system: mice with angiotensin-II-induced hypertension; design: method as in PMID 15699457; conditions: cited from earlier work
# [3] = design: method as in PMID 23020295; conditions: cited from earlier work
# [4] = system: NO production by poly(I:C)-induced RAW264.7 cells; assay: Nitric oxide assay (Griess method); assay type: cell-based; conditions: for NO production: 10 µM compound, induced control 19.0 ± 1.5 µM, unstimulated ~0.91 µM; for inhibition at 10 µM: Mus musculus, RAW264.7, poly(I:C)-stimulated cells
# Description: The activity of compounds 1–5 with respect to NO production by poly(I:C)-induced RAW264.7 cells was evaluated by measuring the amount of nitrite that accumulated in the culture medium using the Griess method. When tested at a concentration 10 µM, none of the compounds affected the viability of RAW264.7 cells. In unstimulated RAW264.7 cells, NO production was ~ 0.91 µM, whereas in poly(I:C)-induced cells, it was 19.0 ± 1.5 µM. In induced cells simultaneously treated with compounds 1–5 at a concentration of 10 µM, NO production was 12.5 ± 0.1, 9.6 ± 0.2, 4.0 ± 0.2, 7.0 ± 0.3, and 13.9 ± 0.8 µM, respectively (Figure 5).
# RAW264.7 macrophages were initially cultured as described above and then pretreated for 2 h with 10 µM of the candidate inhibitor. Then, they were stimulated with 1 µg LPS /mL for 24 h. Then, 100 µL each of supernatant and Griess reagent were added to the plate. The absorbance at 450 nm was measured as described.
# [5] = target: T1, sEH (Homo sapiens, UniProt P34913); assay: sEH enzyme kinetics (Lineweaver–Burk and Dixon plots); assay type: biochemical; conditions: for Ki: calculated from the Dixon plot; for Binding Mode: substrate 3.1–50 µM, Lineweaver–Burk plot
# T1 construct: purchased Cayman Chemical 10011669
# T1 sequence (P34913 1-555): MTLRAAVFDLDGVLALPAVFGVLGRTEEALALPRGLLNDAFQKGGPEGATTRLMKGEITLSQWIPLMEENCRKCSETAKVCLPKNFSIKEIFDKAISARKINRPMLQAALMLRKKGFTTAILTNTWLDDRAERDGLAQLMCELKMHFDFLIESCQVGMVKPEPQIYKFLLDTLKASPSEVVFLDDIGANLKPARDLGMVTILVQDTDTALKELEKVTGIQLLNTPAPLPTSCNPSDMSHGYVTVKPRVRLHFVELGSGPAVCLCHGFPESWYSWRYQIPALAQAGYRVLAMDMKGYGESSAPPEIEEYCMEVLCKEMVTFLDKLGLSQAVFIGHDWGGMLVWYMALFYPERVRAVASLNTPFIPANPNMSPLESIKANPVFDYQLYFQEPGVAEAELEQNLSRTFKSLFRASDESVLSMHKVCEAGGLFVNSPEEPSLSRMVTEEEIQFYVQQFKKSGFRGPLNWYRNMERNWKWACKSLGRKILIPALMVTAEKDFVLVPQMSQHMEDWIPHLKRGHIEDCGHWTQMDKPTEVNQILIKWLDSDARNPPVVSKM
# Description: Determinations of enzyme kinetics yield insights into the interactions between inhibitors and enzymes. In such studies, the changes in the initial velocity (v0) of the enzymatic reaction induced by the inhibitor depending on the substrate concentration are monitored. To investigate the effects of the five flavonoids (1–5) on sEH, a substrate concentration of 3.1–50 µM was used. […] The ki values calculated from the Dixon plot were 43.9, 19.8, 17.5, 63.5, and 68.7 µM, respectively (Figure 2G–K).
# In 96-well plates, 20 µL of isolated compounds […] in methanol was mixed with 100 µL of 25 mM Tris–HCl (pH 7.0) buffer containing 0.1% BSA, followed by adding 30 µL of 1.0 µg/mL sEH and then 50 µL of 40 μM PHOME. The reaction product was measured using a fluorescent photometer (excitation filter: 330 nm, emission filter: 465 nm).
# [6] = target: T1, sEH; assay: sEH activity assay (PHOME fluorescence); assay type: biochemical; conditions: triplicate, six concentrations
# Description: ^1H (400 MHz) and ^13C (100 MHz) nuclear magnetic resonance (NMR) spectra were obtained using a Bruker DRX-400 spectrometer (Bruker, Billerica, MA, USA) with tetramethylsilane as the internal standard. Thin-layer chromatography (TLC) was performed on pre-coated silica gel 60 F254 (0.25 mm; Merck, Rahway, NJ, USA) and reversed-phase-18 F254s plates (0.25 mm; Merck). Column chromatography was performed using a silica gel (60 A, 70–230, or 230–400 mesh ASTM; Merck, Germany) and reversed-phase silica gel (ODS-A, S-75 μm; YMC, Kyoto, Japan). […] Greiss reagent and lipopolysaccharide (LPS) were purchased from Sigma-Aldrich (St. Louis, MO, USA). Dulbecco’s modified Eagle medium (DMEM) and fetal bovine serum were purchased from Gibco (Grand Island, NY, USA). Penicillin/streptomycin antibiotics came from Invitrogen (Carlsbad, CA, USA).
# Inhibitor efficiency (%) was calculated as shown in Equation (1):Inhibitory activity = 100 − [(I4_0 − I0)/(M40 − M0)] × 100(1) where I40 and M40 are the fluorescence of the candidate inhibitor (I) and methanol (M) after 40 min, and I0 and M0 are the fluorescence of I and M at 0 min, respectively.
# [7] = system: arthritic rats; design: method as in PMID 27177082; conditions: cited from earlier work
# [8] = system: LPS-activated THP-1 cells; design: method as in PMID 27177082; conditions: cited from earlier work
Structure (SMILES),NO production [4],Ki [5],Binding Mode [5],IC50 [6],further results
C=C(C)[C@@H](O)[C@@H](O)C[C@@H](C)C1=C2CC[C@H]3[C@@]4(C)CCC(=O)C(C)(C)[C@@H]4CC[C@]3(C)[C@@]2(C)CC1 [11-deoxy-25-anhydroalisol E],–,–,–,–,sEH inhibition (in words) [1]: considerable inhibitory effects on sEH
"O=C(O)CCCCCCCCCCCNC(=O)NC12CC3CC(CC(C3)C1)C2 [AUDA, 12-(3-adamantan-1-yl-ureido) dodecanoic acid]",–,–,–,–,blood pressure [2]: effective for lowering blood pressure; metabolism in vivo [3]: rapid metabolism in vivo
"COc1ccc(-c2oc3cc(OC)c(OC)c(O)c3c(=O)c2O)cc1O [Compound 1, eupatin]",12.5 ± 0.1 µM,43.9 µM,non-competitive,42.6 ± 0.8 µM,Binding Mode ([5]; listed as eupatin): noncompetitive
"COc1c(O)cc2oc(-c3ccc(O)cc3)cc(=O)c2c1O [Compound 2, hispidulin]",9.6 ± 0.2 µM,19.8 µM,non-competitive,22.2 ± 0.3 µM,Binding Mode ([5]; listed as hispidulin): noncompetitive
"COc1c(O)cc2oc(-c3ccc(O)c(O)c3)c(O)c(=O)c2c1O [Compound 3, patuletin]",4.0 ± 0.2 µM,17.5 µM,non-competitive,12.1 ± 0.1 µM,inhibition at 10 µM [4]: > 50%; Binding Mode ([5]; listed as patuletin): noncompetitive; TNF-α and IL-1β levels [7]: decrease TNF-α and IL-1β levels; TNF-α and IL-1β levels [8]: decrease TNF-α and IL-1β levels
"COc1c(O)cc2oc(-c3ccc(O)c(O)c3)cc(=O)c2c1O [Compound 4, nepetin]",7.0 ± 0.3 µM,63.5 µM,non-competitive,40.9 ± 0.6 µM,inhibition at 10 µM [4]: > 50%; Binding Mode ([5]; listed as nepetin): noncompetitive
"COc1cc(-c2oc3cc(O)cc(O)c3c(=O)c2OC2OC(CO)C(O)C(O)C2O)ccc1O (stereo not shown) [Compound 5, isorhametin-3-O-glucoside]",13.9 ± 0.8 µM,68.7 µM,non-competitive,62.8 ± 1.8 µM,Binding Mode ([5]; listed as isorhametin-3-O-glucoside): noncompetitive
COc1cc(-c2cc(=O)c3c(O)cc(O)cc3o2)ccc1O [chrysoeriol],–,–,–,–,inhibition mode [1]: non-competitive
COc1cc(-c2oc3cc(O[C@@H]4O[C@H](CO)[C@@H](O)[C@H](O)[C@H]4O)cc(O)c3c(=O)c2O)ccc1O [isorhamnetin-7-O-glucopyranoside],–,–,–,–,inhibition mode [1]: non-competitive
O=c1c(O)c(-c2ccc(O)cc2)oc2cc(O)cc(O)c12 [kaempferol],–,–,–,–,sEH inhibition (in words) [1]: potent sEH inhibitors
O=c1cc(-c2ccc(O)c(O)c2)oc2cc(O[C@@H]3O[C@H](CO)[C@@H](O)[C@H](O)[C@H]3O)cc(O)c12 [luteolin-7-O-glucopyranoside],–,–,–,–,inhibition mode [1]: non-competitive
O=c1c(O)c(-c2ccc(O)c(O)c2)oc2cc(O)cc(O)c12 [quercetin],–,–,–,–,sEH inhibition (in words) [1]: potent sEH inhibitors
